Read-outs that look alike come from different tables or passages of the source.
Tests used:
[1] = rotating rod test (sedative/muscle relaxant properties); format: in vivo, mice; conditions: Mus musculus, iv, i.v., read-out: Rotating rod test, ED550
Experimental: The sedative/muscle relaxant properties of the compounds of formula I in accordance with the invention can be determined, for example, in the rotating rod test. Mice weighing 19-21 g are used for this test. They have free access to feed and drinking water up to 1 h before the beginning of the test. They are brought into the test laboratory at least 30 min. before the test. In the rotating rod test the animals are placed on a horizontally arranged, smooth metal rod having a diameter of 3 cm, which is rotated at 2 revolutions per min. Initially, the animals are given the opportunity of familiarizing themselves with the test situation for 30 sec. Subsequently, those animals which succeed in remaining on the rod for at least 1 min. are selected. These animals are then given the test preparations intravenously in different dosages. At various points in time it is then determined whether the animals are able to remain on the rod for a minimum period (minimum period: 10 sec.; from 5 min. after administration: 1 min.). That dosage at which 50% of the animals are capable of remaining on the rod (ED50) is determined.

[2] = target: central benzodiazepine receptors; assay: inhibition of the binding of tritiated flumazenil to the specific benzodiazepine receptors in the cortex of rats; conditions: read-out: Affinity to benzodiazepine receptors IC50
Experimental: The affinity of compounds of general formula I to the central benzodiazepine receptors has been established in vitro according to the methods described in Nature 294, 763-765 (1981) and J. Neurochemistry 37, 714-722 (1981). According to these methods, the inhibition of the binding of tritiated flumazenil to the specific benzodiazepine receptors in the cortex of rats by the respective test substances is determined. The IC50 ("50% inhibiting concentration") denotes that concentration of the respective test substance which brings about a 50 percent inhibition of the specific binding of tritiated flumazenil to the specific benzodiazepine receptors in the cortex of rats.

[3] = 15 s, 15 sec after administration
[4] = 0.5 min, 30 sec after administration
[5] = 1 min, 60 sec after administration
[6] = 2 min, 2 min after administration
[7] = 5 min, 5 min after administration
[8] = 0.25 h, 15 min after administration
[9] = 0.5 h, 30 min after administration
[10] = 1 h, 60 min after administration

`CCCN(CCC)Cc1csc(-c2ncn3c2[C@@H]2CCN2C(=O)c2c(Cl)cccc2-3)n1` [E, (S)-8-chloro-1-(4-dipropylaminomethyl-thiazol-2-yl)-12,12a-dihydro-9H,11H-azeto[2,1-c]imidazo[1,5-a][1,4]benzodiazepin-9-one] gave an ED50 [1, 3] of 0.3 mg/kg, an ED50 [1, 4] of 0.3 mg/kg and an ED50 [1, 5] of 0.3 mg/kg. It also gave an ED50 [1, 6] of 0.9 mg/kg, an ED50 [1, 7] of 1 mg/kg and an ED50 [1, 8] of 3.2 mg/kg. For the same compound, the ED50 [1, 9] was no less than 10 mg/kg, the ED50 [1, 10] was greater than 10 mg/kg and the IC50 [2] was 11 nM.
For `CCCN(CCC)Cc1cnc(-c2ncn3c2[C@@H]2CCN2C(=O)c2c(Cl)cccc2-3)o1` [A, (S)-8-chloro-1-(5-dipropylaminomethyl-oxazol-2-yl)-12,12a-dihydro-9H,11H-azeto[2,1-c]imidazo[1,5-a][1,4]benzodiazepin-9-one], the ED50 [1, 3] was 0.3 mg/kg, the ED50 [1, 4] was 0.4 mg/kg and the ED50 [1, 5] was 0.6 mg/kg. For the same compound, the ED50 [1, 6] was 1.1 mg/kg, the ED50 [1, 7] was 1.8 mg/kg and the ED50 [1, 8] was greater than 10 mg/kg. The ED50 [1, 9] was greater than 10 mg/kg, the ED50 [1, 10] was greater than 10 mg/kg and the IC50 [2] was 32 nM.
For `CCCN(CCC)Cc1cnc(-c2ncn3c2CN(C)C(=O)c2c(Cl)cccc2-3)o1` [G, 7-chloro-3-(5-dipropylaminomethyl-oxazol-2-yl)-5-methyl-5,6-dihydro-4H-imidazo[1,5-a][1,4]benzodiazepin-6-one], the ED50 [1, 3] was 1 mg/kg, the ED50 [1, 4] was 1.2 mg/kg and the ED50 [1, 5] was 1.8 mg/kg. The ED50 [1, 6] was 2.1 mg/kg, the ED50 [1, 7] was 3 mg/kg and the ED50 [1, 8] was 3.4 mg/kg. For the same compound, the ED50 [1, 9] was 5.6 mg/kg, the ED50 [1, 10] was greater than 10 mg/kg and the IC50 [2] was 4 nM.
For `CCCN(CCC)Cc1coc(-c2ncn3c2CN(C)C(=O)c2c(Cl)cccc2-3)n1` [M, 7-chloro-3-(4-dipropylaminomethyl-oxazol-2-yl)-5-methyl-5,6-dihydro-4H-imidazo[1,5-a][1,4]benzodiazepin-6-one], the ED50 [1, 3] was 0.4 mg/kg, the ED50 [1, 4] was 1 mg/kg and the ED50 [1, 5] was 1.2 mg/kg. The ED50 [1, 6] was 3 mg/kg, the ED50 [1, 7] was 3.7 mg/kg and the ED50 [1, 8] was 8.8 mg/kg. For the same compound, the ED50 [1, 9] was no less than 10 mg/kg, the ED50 [1, 10] was greater than 10 mg/kg and the IC50 [2] was 15 nM.
In the case of `CCCN(CCC)Cc1cnc(-c2ncn3c2CN(C)C(=O)c2ccccc2-3)o1` [F, 3-(5-dipropylaminomethyl-oxazol-2-yl)-5-methyl-5,6-dihydro-4H-imidazo[1,5-a][1,4]benzodiazepin-6-one], the ED50 [1, 3] is reported as 1.7 mg/kg, the ED50 [1, 4] is reported as 3.9 mg/kg and the ED50 [1, 5] is reported as 4.7 mg/kg. The ED50 [1, 6] was no less than 10 mg/kg, the ED50 [1, 7] was no less than 10 mg/kg and the ED50 [1, 8] was greater than 10 mg/kg. The ED50 [1, 9] was greater than 10 mg/kg, the ED50 [1, 10] was greater than 10 mg/kg and the IC50 [2] was 66 nM.
In the case of `CCCN(CCC)Cc1cnc(-c2ncn3c2CN(C)C(=O)c2cc(F)ccc2-3)o1` [B, 3-(5-dipropylaminomethyl-oxazol-2-yl)-8-fluoro-5-methyl-5,6-dihydro-4H-imidazo[1,5-a][1,4]benzodiazepin-6-one], the ED50 [1, 3] is reported as 0.3 mg/kg, the ED50 [1, 4] is reported as 0.5 mg/kg and the ED50 [1, 5] is reported as 0.7 mg/kg. It also gave an ED50 [1, 6] of 1.6 mg/kg, an ED50 [1, 7] of 2.6 mg/kg and an ED50 [1, 8] of 4.9 mg/kg. For the same compound, the ED50 [1, 9] was greater than 10 mg/kg, the ED50 [1, 10] was greater than 10 mg/kg and the IC50 [2] was 59 nM.
In the case of `CCCN(CCC)Cc1csc(-c2ncn3c2[C@@H]2CCCN2C(=O)c2c(Cl)cccc2-3)n1` [K, (S)-8-chloro-1-(4-dipropylaminomethyl-thiazol-2-yl)-11,12,13,13a-tetrahydro-9H-imidazo[1,5-a]pyrrolo[2,1-c][1,4]benzodiazepin-9-one], the ED50 [1, 3] is reported as 1.8 mg/kg, the ED50 [1, 4] is reported as 1.8 mg/kg and the ED50 [1, 5] is reported as 5.6 mg/kg. For the same compound, the ED50 [1, 6] was 3.7 mg/kg, the ED50 [1, 7] was 5.6 mg/kg and the ED50 [1, 8] was no less than 10 mg/kg. For the same compound, the ED50 [1, 9] was no less than 10 mg/kg, the ED50 [1, 10] was greater than 10 mg/kg and the IC50 [2] was 15 nM.
`CCCN(CCC)Cc1csc(-c2ncn3c2CN(C)C(=O)c2c(Cl)cccc2-3)n1` [J, 7-chloro-3-(4-dipropylaminomethyl-thiazol-2-yl)-5-methyl-5,6-dihydro-4H-imidazo[1,5-a][1,4]benzodiazepin-6-one] gave an ED50 [1, 3] of 0.7 mg/kg, an ED50 [1, 4] of 0.9 mg/kg and an ED50 [1, 5] of 2.3 mg/kg. It also gave an ED50 [1, 6] of no less than 10 mg/kg, an ED50 [1, 7] of no less than 10 mg/kg and an ED50 [1, 8] greater than 10 mg/kg. It also gave an ED50 [1, 9] greater than 10 mg/kg, an ED50 [1, 10] greater than 10 mg/kg and an IC50 [2] of 5.2 nM.
Work on `CCCN(CCC)Cc1cnc(-c2ncn3c2[C@@H]2CCN2C(=O)c2sccc2-3)o1` [D, (S)-1-(5-dipropylaminomethyl-oxazol-2-yl)-11,11a-dihydro-8H,10H-azeto[1,2-a]imidazo[5,1-c]thieno[3,2-e][1,4]diazepin-8-one] yielded an ED50 [1, 3] of 0.1 mg/kg, an ED50 [1, 4] of 0.2 mg/kg and an ED50 [1, 5] of 0.4 mg/kg. It also gave an ED50 [1, 6] of 0.5 mg/kg, an ED50 [1, 7] of 1.8 mg/kg and an ED50 [1, 8] of 3.6 mg/kg. It also gave an ED50 [1, 9] greater than 10 mg/kg, an ED50 [1, 10] greater than 10 mg/kg and an IC50 [2] of 7 nM.
`CCCN(CCC)Cc1csc(-c2ncn3c2CN(C)C(=O)c2c-3ccc(F)c2Cl)n1` [L, 7-chloro-3-(4-dipropylaminomethyl-thiazol-2-yl)-8-fluoro-5-methyl-5,6-dihydro-4H-imidazo[1,5-a][1,4]benzodiazepin-6-one] gave an ED50 [1, 3] of 1.1 mg/kg, an ED50 [1, 4] of 1.1 mg/kg and an ED50 [1, 5] of 1.1 mg/kg. For the same compound, the ED50 [1, 6] was 2.8 mg/kg, the ED50 [1, 7] was 4.7 mg/kg and the ED50 [1, 8] was 5.7 mg/kg. It also gave an ED50 [1, 9] of no less than 10 mg/kg, an ED50 [1, 10] greater than 10 mg/kg and an IC50 [2] of 16 nM.
Work on `CCCN(CCC)Cc1cnc(-c2ncn3c2CN(C)C(=O)c2c-3ccc(F)c2Cl)o1` [C, 7-chloro-3-(5-dipropylaminomethyl-oxazol-2-yl)-8-fluoro-5-methyl-5,6-dihydro-4H-imidazo[1,5-a][1,4]benzodiazepin-6-one] yielded an ED50 [1, 3] of 0.3 mg/kg, an ED50 [1, 4] of 0.3 mg/kg and an ED50 [1, 5] of 0.5 mg/kg. It also gave an ED50 [1, 6] of 0.7 mg/kg, an ED50 [1, 7] of 1.6 mg/kg and an ED50 [1, 8] of 2 mg/kg. It also gave an ED50 [1, 9] greater than 10 mg/kg, an ED50 [1, 10] of no less than 10 mg/kg and an IC50 [2] of 7 nM.
With `CCCN(CCC)Cc1cnc(-c2ncn3c2CN(C)C(=O)c2sccc2-3)o1` [I, 3-(5-dipropylaminomethyl-oxazol-2-yl)-5-methyl-5,6-dihydro-4H-imidazo[1,5-a]thieno[2,3-f][1,4]diazepin-6-one] the ED50 [1, 3] was 1.8 mg/kg, the ED50 [1, 4] was 1.7 mg/kg and the ED50 [1, 5] was 3.4 mg/kg. The ED50 [1, 6] was 3.9 mg/kg, the ED50 [1, 7] was 8.7 mg/kg and the ED50 [1, 8] was greater than 10 mg/kg. The ED50 [1, 9] was greater than 10 mg/kg, the ED50 [1, 10] was greater than 10 mg/kg and the IC50 [2] was 17 nM.
In the case of `CCCCN(CCCC)Cc1cnc(-c2ncn3c2CN(C)C(=O)c2cc(F)ccc2-3)o1` [H, 3-(5-dibutylaminomethyl-oxazol-2-yl)-8-fluoro-5-methyl-5,6-dihydro-4H-imidazo[1,5-a][1,4]benzodiazepin-6-one], the ED50 [1, 3] is reported as 1.1 mg/kg, the ED50 [1, 4] is reported as 1.1 mg/kg and the ED50 [1, 5] is reported as 1.2 mg/kg. The ED50 [1, 6] was 2.1 mg/kg, the ED50 [1, 7] was 3.4 mg/kg and the ED50 [1, 8] was no less than 10 mg/kg. For the same compound, the ED50 [1, 9] was greater than 10 mg/kg, the ED50 [1, 10] was greater than 10 mg/kg and the IC50 [2] was 35 nM.

Source: US5885986A, “Oxazolyl- and thiazolylimidazo-benzo- and thienodiazepines and their use as medicaments” (Hoffmann-La Roche Inc., priority 1994, dated 1999)
